Legend:
Experiment in all cases: relative viability (nuclei count vs DMSO), 5 days (fraction); higher = more cells survive
[1] = compound: CC(=O)c1c(C)c2cnc(Nc3ccc(N4CCNCC4)cn3)nc2n(C2CCCC2)c1=O [Palbociclib] + CC(=O)Nc1cccc(-n2c(=O)n(C3CC3)c(=O)c3c(Nc4ccc(I)cc4F)n(C)c(=O)c(C)c32)c1 [Trametinib] (partner 0.02 µM)
Outline: (§1)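 Lung cancer cell lines, seeded in 1536-well plates, were treated the following day by pin tool with a single drug or with five library-drug doses (not always all listed) in √10 steps on top of a fixed anchor-drug dose. Cells were fixed and nuclei stained in one step after 5 days, and nuclei were counted. Relative viability is the nuclei count for treated wells divided by that for vehicle wells, reported as medians of duplicate plates.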

[2] = compound: CC(=O)c1c(C)c2cnc(Nc3ccc(N4CCNCC4)cn3)nc2n(C2CCCC2)c1=O [Palbociclib] + C[C@@H](Oc1cc(-c2cnn(C3CCNCC3)c2)cnc1N)c1c(Cl)ccc(F)c1Cl [Crizotinib] (partner 1 µM)
Outline: as §1

[3] = compound: CC(=O)c1c(C)c2cnc(Nc3ccc(N4CCNCC4)cn3)nc2n(C2CCCC2)c1=O [Palbociclib] + Cc1cc(Nc2cc(N3CCN(C)CC3)nc(Sc3ccc(NC(=O)C4CC4)cc3)n2)n[nH]1 [Tozasertib] (partner 0.1 µM)
Outline: as §1

[4] = compound: CC(=O)c1c(C)c2cnc(Nc3ccc(N4CCNCC4)cn3)nc2n(C2CCCC2)c1=O [Palbociclib] + NC(=O)Nc1cc(-c2cccc(F)c2)sc1C(=O)N[C@H]1CCCNC1 [AZD7762] (partner 0.2 µM)
Outline: as §1

Cell Line: LU99A
- relative viability ([1]; first compound 0.01 µM): 0.557
- relative viability ([1]; first compound 0.1 µM): 0.523
- relative viability ([1]; first compound 0.3162 µM): 0.573
- relative viability ([1]; first compound 1 µM): 0.478
- relative viability ([2]; first compound 0.01 µM): 0.636
- relative viability ([2]; first compound 0.03162 µM): 0.559
- relative viability ([2]; first compound 0.1 µM): 0.496
- relative viability ([2]; first compound 0.3162 µM): 0.428
- relative viability ([2]; first compound 1 µM): 0.389
- relative viability ([3]; first compound 0.01 µM): 0.314
- relative viability ([3]; first compound 0.03162 µM): 0.268
- relative viability ([3]; first compound 0.1 µM): 0.254
- relative viability ([3]; first compound 0.3162 µM): 0.308
- relative viability ([3]; first compound 1 µM): 0.25
- relative viability ([4]; first compound 0.01 µM): 0.405
- relative viability ([4]; first compound 0.1 µM): 0.277
- relative viability ([4]; first compound 0.3162 µM): 0.34
- relative viability ([4]; first compound 1 µM): 0.27

Cell Line: HCC-366
- relative viability ([1]; first compound 0.01 µM): 0.466
- relative viability ([1]; first compound 0.1 µM): 0.41
- relative viability ([1]; first compound 0.3162 µM): 0.298
- relative viability ([1]; first compound 1 µM): 0.24
- relative viability ([2]; first compound 0.01 µM): 0.539
- relative viability ([2]; first compound 0.1 µM): 0.501
- relative viability ([2]; first compound 0.3162 µM): 0.526
- relative viability ([2]; first compound 1 µM): 0.413
- relative viability ([3]; first compound 0.01 µM): 0.135
- relative viability ([3]; first compound 0.1 µM): 0.149
- relative viability ([3]; first compound 0.3162 µM): 0.129
- relative viability ([3]; first compound 1 µM): 0.139
- relative viability ([4]; first compound 0.01 µM): 0.198
- relative viability ([4]; first compound 0.1 µM): 0.43
- relative viability ([4]; first compound 0.3162 µM): 0.232
- relative viability ([4]; first compound 1 µM): 0.11

Cell Line: HOP-62
- relative viability ([1]; first compound 0.01 µM): 0.431
- relative viability ([1]; first compound 0.1 µM): 0.36
- relative viability ([1]; first compound 0.3162 µM): 0.382
- relative viability ([1]; first compound 1 µM): 0.288
- relative viability ([2]; first compound 0.01 µM): 0.817
- relative viability ([2]; first compound 0.1 µM): 0.842
- relative viability ([2]; first compound 0.3162 µM): 0.812
- relative viability ([2]; first compound 1 µM): 0.666
- relative viability ([3]; first compound 0.01 µM): 0.368
- relative viability ([3]; first compound 0.1 µM): 0.344
- relative viability ([3]; first compound 0.3162 µM): 0.347
- relative viability ([3]; first compound 1 µM): 0.338
- relative viability ([4]; first compound 0.01 µM): 0.334
- relative viability ([4]; first compound 0.1 µM): 0.389
- relative viability ([4]; first compound 0.3162 µM): 0.501
- relative viability ([4]; first compound 1 µM): 0.355

Cell Line: NCI-H1734
- relative viability ([1]; first compound 0.01 µM): 0.617
- relative viability ([1]; first compound 0.03162 µM): 0.6
- relative viability ([1]; first compound 0.1 µM): 0.581
- relative viability ([1]; first compound 0.3162 µM): 0.56
- relative viability ([1]; first compound 1 µM): 0.481
- relative viability ([2]; first compound 0.01 µM): 0.685
- relative viability ([2]; first compound 0.03162 µM): 0.622
- relative viability ([2]; first compound 0.1 µM): 0.52
- relative viability ([2]; first compound 0.3162 µM): 0.499
- relative viability ([2]; first compound 1 µM): 0.398
- relative viability ([3]; first compound 0.01 µM): 0.267
- relative viability ([3]; first compound 0.03162 µM): 0.253
- relative viability ([3]; first compound 0.1 µM): 0.29
- relative viability ([3]; first compound 0.3162 µM): 0.231
- relative viability ([3]; first compound 1 µM): 0.277
- relative viability ([4]; first compound 0.01 µM): 0.53
- relative viability ([4]; first compound 0.03162 µM): 0.417
- relative viability ([4]; first compound 0.1 µM): 0.454
- relative viability ([4]; first compound 0.3162 µM): 0.453
- relative viability ([4]; first compound 1 µM): 0.356

Cell Line: NCI-H3122
- relative viability ([1]; first compound 0.01 µM): 0.212
- relative viability ([1]; first compound 0.03162 µM): 0.207
- relative viability ([1]; first compound 0.1 µM): 0.232
- relative viability ([1]; first compound 0.3162 µM): 0.192
- relative viability ([1]; first compound 1 µM): 0.158
- relative viability ([2]; first compound 0.01 µM): 0.246
- relative viability ([2]; first compound 0.03162 µM): 0.244
- relative viability ([2]; first compound 0.1 µM): 0.252
- relative viability ([2]; first compound 0.3162 µM): 0.188
- relative viability ([2]; first compound 1 µM): 0.175
- relative viability ([3]; first compound 0.01 µM): 0.344
- relative viability ([3]; first compound 0.03162 µM): 0.212
- relative viability ([3]; first compound 0.1 µM): 0.231
- relative viability ([3]; first compound 0.3162 µM): 0.234
- relative viability ([3]; first compound 1 µM): 0.143
- relative viability ([4]; first compound 0.01 µM): 0.927
- relative viability ([4]; first compound 0.03162 µM): 0.82
- relative viability ([4]; first compound 0.1 µM): 0.897
- relative viability ([4]; first compound 0.3162 µM): 0.715
- relative viability ([4]; first compound 1 µM): 0.347

Cell Line: RERF-LC-KJ
- relative viability ([1]; first compound 0.01 µM): 0.793
- relative viability ([1]; first compound 0.03162 µM): 0.771
- relative viability ([1]; first compound 0.1 µM): 0.846
- relative viability ([1]; first compound 0.3162 µM): 0.813
- relative viability ([1]; first compound 1 µM): 0.91
- relative viability ([2]; first compound 0.01 µM): 0.909
- relative viability ([2]; first compound 0.03162 µM): 0.82
- relative viability ([2]; first compound 0.1 µM): 0.82
- relative viability ([2]; first compound 0.3162 µM): 0.88
- relative viability ([2]; first compound 1 µM): 0.87
- relative viability ([3]; first compound 0.01 µM): 0.467
- relative viability ([3]; first compound 0.03162 µM): 0.446
- relative viability ([3]; first compound 0.1 µM): 0.392
- relative viability ([3]; first compound 0.3162 µM): 0.536
- relative viability ([3]; first compound 1 µM): 0.534
- relative viability ([4]; first compound 0.01 µM): 0.966
- relative viability ([4]; first compound 0.03162 µM): 0.661
- relative viability ([4]; first compound 0.1 µM): 0.932
- relative viability ([4]; first compound 0.3162 µM): 0.948
- relative viability ([4]; first compound 1 µM): 0.996

Cell Line: NCI-H2087
- relative viability ([1]; first compound 0.01 µM): 0.236
- relative viability ([1]; first compound 0.03162 µM): 0.191
- relative viability ([1]; first compound 0.1 µM): 0.161
- relative viability ([1]; first compound 0.3162 µM): 0.15
- relative viability ([1]; first compound 1 µM): 0.187
- relative viability ([2]; first compound 0.01 µM): 0.802
- relative viability ([2]; first compound 0.03162 µM): 0.901
- relative viability ([2]; first compound 0.1 µM): 0.618
- relative viability ([2]; first compound 0.3162 µM): 0.643
- relative viability ([2]; first compound 1 µM): 0.375
- relative viability ([3]; first compound 0.01 µM): 0.212
- relative viability ([3]; first compound 0.1 µM): 0.189
- relative viability ([3]; first compound 0.3162 µM): 0.189
- relative viability ([3]; first compound 1 µM): 0.156
- relative viability ([4]; first compound 0.01 µM): 1.18
- relative viability ([4]; first compound 0.03162 µM): 1.16
- relative viability ([4]; first compound 0.1 µM): 1.03
- relative viability ([4]; first compound 0.3162 µM): 0.902
- relative viability ([4]; first compound 1 µM): 0.641
